“Also recorded” adds a separate entry of the source. Where no end group is shown, it is not given here.
Tests used:
[1] = system: MCF-7 breast cancer cells; test: WST-1 viability assay, MCF-7 cells; assay type: cell-based, human; conditions: WST-1, 5 μM peptide, treated every 24 h, day 3, 1% FBS without insulin; triplicate
Experimental: (§1) Figure 1. Effects of SRC-1 bioportides on cancer and primary fibroblast cells. (A) Viability of MCF-7 cells; (B) Viability of FB188 cells. Cells were seeded in 96-well plates at a density of 3000 or 2000 cells/well, respectively, and treated after every 24 h with the indicated peptide concentrations. Viability of both cell types was monitored at day 3 via the WST-1 assay. The values shown represent the mean values of one experiment, carried out in triplicate (mean ± SD). In total, three independent experiments were performed.
(§2) Cytotoxicity of peptides was measured via the WST-1 conversion assay (Roche, Mannheim, Germany). FB188 and MCF-7 cells were seeded in 96-well plates at a density of 2000 or 3000 cells/well, respectively, and allowed to adhere overnight. Subsequently the cells were pre-incubated for two days in medium containing 1% FBS without supplementary insulin and exposed to the indicated concentrations of the respective peptide for up to 3 days. WST-1 conversion was determined by colorimetric analysis at 450 nm. Briefly, WST-1 reagent (1/10 of sample volume) was added directly to the growth medium and incubated at 37 °C for 4 h. The absorbance was determined using a microplate reader (Molecular Devices, Sunnyvale, CA, USA) at 450 nm. Untreated cells were designated a cell survival value of 100%.

[2] = system: human primary fibroblasts (FB188 cells); test: WST-1 viability assay, primary fibroblasts (FB188); assay type: cell-based
Experimental: as §1, §2

MCF-7 cells [3] = assay type: cell-based, human; conditions: for Effect on survival of MCF-7 cells: propidium iodide viability assay, 5 μM every 24 h for 4 days, 1% FBS without insulin
Experimental: (§3) Figure 3. Inhibition of cell viability by SRC-1 bioportides and their influence on ERα-mediated gene transactivation. (A) MCF-7 cells; (B) MDA-MB-231 cells. Cells were seeded in 24-well plates at low density and were treated every 24 h for 4 days with 5 μM peptide. Cell proliferation was measured after 1, 3, and 4 days of peptide treatment via a propidium iodide viability assay. […] MCF-7 cells were cultured with 5 μM of the indicated peptides and analyzed on day 2 of treatment. The fold change is the value compared with untreated cells. The values shown represent the mean values of one representative experiment, carried out in triplicate (mean ± SD). In total, three independent experiments were performed.
(§4) Cells were plated at low density in 24-well plates in standard growth medium, as described above. Before peptide treatment, MCF-7 cell growth was impeded by growing cells in 1% FBS containing medium without addition of insulin. At the day of treatment, peptides were added to the growth medium containing 1% FBS to the indicated final concentration. The procedure was repeated every 24 h for 4 days; samples were drawn after 1, 3, and 4 days of treatment and analyzed by cell counting using the propidium iodide viability assay (Nucleocounter, ChemoMetec, Allerød, Denmark) according to manufacturer’s instructions.

MDA-MB-231 cells = assay type: cell-based, human; conditions: for Effect on survival of MDA-MB-231 cells: propidium iodide viability assay, 5 μM every 24 h for 4 days, 1% FBS
Experimental: as §3, §4

[4] = system: HeLa cervical cancer cells; test: Toxicity to HeLa cells; assay type: cell-based, human; conditions: for Toxicity to HeLa cells: data not shown, concentration not given
BCL2 mRNA in MCF-7 cells = test: Quantitative RT-PCR of ERα target gene BCL2, MCF-7; assay type: cell-based, human; conditions: MCF-7, 5 μM peptide, day 2, qRT-PCR; similar to TP10 or TP10-SRC1_1222–1245 treated cells
Experimental: as §3
(§5) For quantitative RT-PCR (qPCR) analysis, MCF-7 cells were treated as described above for the proliferation assay. On day 2, cells were lysed and total RNA was extracted using a commercial RNAqueous Kit (Ambion, Austin, TX, USA). Genomic DNA was removed with DNase I treatment (Ambion) according to the supplier’s protocol. RNA was reverse-transcribed using SuperScript III Reverse Transcriptase (Invitrogen, Carlsbad, CA, USA). Subsequently, qPCR was performed using Platinum SYBR Green (Invitrogen) according to the manufacturer’s protocol. […]

CTSD mRNA in MCF-7 cells = test: Quantitative RT-PCR of ERα target gene CTSD, MCF-7; assay type: cell-based, human; conditions: MCF-7, 5 μM peptide, day 2, qRT-PCR; similar to TP10 or TP10-SRC1_1222–1245 treated cells
Experimental: as §3, §5

MCF-7 cells [5] = test: Annexin V / 7-AAD flow cytometric detection of apoptosis; assay type: cell-based, human; conditions: MCF-7, 5 μM peptide, 24 h, 1% FBS without insulin, flow cytometry
Experimental: Figure 4. Flow cytometric detection of apoptosis by annexin V and 7-amino-actinomycin D (7-AAD) staining. (A) Representative dot plots of 7-AAD versus annexin-V-PE. MCF-7 cells were left untreated (control) or were treated with 5 μM of peptide for 24 h in media supplemented with 1% serum. The lower left quadrant contains the vital (double negative) population; the lower right contains the apoptotic (annexin V^+/7-AAD^−) population; the upper right contains the late apoptotic/necrotic (annexin V^+/7-AAD^+) population; and the upper left contains the pre-necrotic (annexin V^−/7-AAD^+) population; (B) Average percentage of apoptotic and late apoptotic/necrotic cells counted from dot plots taken from one representative experiment, error bars indicate mean ± SD. Data are statistically significant with * p < 0.05, ** p < 0.01. In total, three independent experiments were performed.
Annexin V staining was measured using the PE-annexin-V Apoptosis Detection Kit I (BD Biosciences, San Diego, CA, USA). MCF-7 cells (3 × 10^5) were treated for 24 h with 5 μM peptide in growth medium supplemented with 1% FBS and without insulin. […] Following the addition of 0.4 mL of 1× Binding Buffer, fluorescence of annexin V and 7-AAD was detected in the FL-2 and FL-3 channels, respectively, within 1 h using a FACS Calibur flowcytometer (BD Biosciences, Sparks, MD, USA). […]

pS2 mRNA in MCF-7 cells = test: Quantitative RT-PCR of ERα target gene pS2, MCF-7; assay type: cell-based, human; conditions: MCF-7, 5 μM peptide, day 2, qRT-PCR relative to GAPDH, versus untreated cells
Experimental: as §3, §5

| Substance | Effect on viability of MCF-7 cells [1] | Effect on survival of MCF-7 cells (MCF-7 cells [3]) | Effect on survival of MDA-MB-231 cells (MDA-MB-231 cells) | Toxicity to HeLa cells [4] | pS2 mRNA levels (pS2 mRNA in MCF-7 cells) | further results |
| --- | --- | --- | --- | --- | --- | --- |
| NLS-RRRRRRR [R7, hepta-arginine cell-penetrating peptide with SV40 NLS, control, reference compound] | did not have any effect | – | – | – | – | Effect on viability of human primary fibroblasts ([2]; WST-1, 5 μM peptide, treated every 24 h, day 3, 1% FBS, triplicate): did not have any effect |
| NLS-RRRRRRR-PQMQQNVFQYPGAGMVPQGEANF [R7-SRC1_1222–1245, randomly chosen non-structured fragment of SRC-1 with N-terminal R7; negative control] | – | did not affect survival | did not affect survival | not toxic | – | – |
| NLS-RRRRRRR-YSQTSHKLVQLLTTAEQQ [R7-SRC1LXXLL] | – | did not affect survival | did not affect survival | not toxic | – | – |
| PKKKRKVAGYLLGKINLKALAALAKKILYSQTSHKLVQLLTTAEQQ [TP10-SRC1LXXLL] | significantly more toxic; also recorded: highly cytotoxic | significant cytotoxic effects | – | – | No down-regulation | Cells killed (MCF-7 cells [3]; MCF-7, 5 μM every 24 h, day 3, propidium iodide assay): 50%; Number of viable cells (MCF-7 cells [3]; MCF-7, 5 μM every 24 h, day 4, propidium iodide assay): less than 1%; Cells killed (MDA-MB-231 cells; MDA-MB-231, 5 μM every 24 h, day 3, propidium iodide assay): 99%; Number of viable cells (MDA-MB-231 cells; MDA-MB-231, 5 μM every 24 h, day 4, propidium iodide assay): less than 1%; Concentration affecting the viability of primary fibroblasts ([2]; WST-1, day 3): ≥ 4 µM; BCL2 mRNA expression (BCL2 mRNA in MCF-7 cells): slightly elevated; CTSD mRNA expression (CTSD mRNA in MCF-7 cells): slightly elevated; Cytotoxicity to HeLa cells ([4]; 5 μM): highly cytotoxic; Annexin V and 7-AAD double-stained (late apoptotic/necrotic) cells (MCF-7 cells [5]): smaller population of cells that stained for both 7-AAD and annexin V; Annexin V (+)/7-AAD (−) stained (early apoptotic) cells (MCF-7 cells [5]; compared with untreated cells): predominant population of annexin V positive and 7-AAD negative cells |
| TP10 [reference compound] | did not have any effect | – | – | – | No down-regulation | – |
